Experimental data: paper PMC12621043, “Un-LOK-ing a New Approach for Conformational Selective Targeting of STK10 (LOK)” (ACS Medicinal Chemistry Letters, 2025)

Columns and labels:
FGFR2A = biological target: T1, FGFR2A (Homo sapiens, UniProt P21802); assay: DSF Tm panel; assay type: binding; details: 10 μM compound
T1 construct: purchased in-house DSF kinase panel (SGC-style construct names; the trailing letter is the construct ID)

PIM1 (PIM1A) = biological target: T2, PIM1 (PIM1A) (Homo sapiens, UniProt P11309); assay: DSF Tm panel; assay type: binding; details: 10 μM compound
T2 construct: purchased in-house DSF kinase panel (SGC-style construct names; the trailing letter is the construct ID)

DAPK1 (DAPK1A) = biological target: T3, DAPK1 (DAPK1A) (Homo sapiens, UniProt P53355); assay: DSF Tm panel; assay type: binding; details: 10 μM compound
T3 construct: purchased in-house DSF kinase panel (SGC-style construct names; the trailing letter is the construct ID)

DCAMKL1A = biological target: T4, DCAMKL1A (Homo sapiens, UniProt O15075); assay: DSF Tm panel; assay type: binding; details: 10 μM compound
T4 construct: purchased in-house DSF kinase panel (SGC-style construct names; the trailing letter is the construct ID)
T4 sequence (O15075 372-649): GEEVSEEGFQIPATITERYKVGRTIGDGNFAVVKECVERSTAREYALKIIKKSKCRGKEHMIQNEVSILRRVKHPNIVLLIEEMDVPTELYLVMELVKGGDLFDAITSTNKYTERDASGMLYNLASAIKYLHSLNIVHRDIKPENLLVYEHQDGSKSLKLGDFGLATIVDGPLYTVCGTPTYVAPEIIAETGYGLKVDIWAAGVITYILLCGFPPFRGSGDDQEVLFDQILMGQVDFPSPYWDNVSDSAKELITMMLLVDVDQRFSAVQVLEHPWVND

FESA = biological target: T5, FESA (Homo sapiens, UniProt P07332); assay: DSF Tm panel; assay type: binding; details: 10 μM compound
T5 construct: purchased in-house DSF kinase panel (SGC-style construct names; the trailing letter is the construct ID)

SLK = SLK (Homo sapiens, UniProt Q9H2G2); assay: DSF Tm panel; assay type: binding; parameters: purchased in-house DSF kinase panel (SGC-style construct names; the trailing letter is the construct ID); details: 10 μM compound
GSG2A = biological target: T6, GSG2A (Homo sapiens, UniProt Q8TF76); assay: DSF Tm panel; assay type: binding; details: 10 μM compound
T6 construct: purchased in-house DSF kinase panel (SGC-style construct names; the trailing letter is the construct ID)
T6 sequence (Q8TF76 465-798): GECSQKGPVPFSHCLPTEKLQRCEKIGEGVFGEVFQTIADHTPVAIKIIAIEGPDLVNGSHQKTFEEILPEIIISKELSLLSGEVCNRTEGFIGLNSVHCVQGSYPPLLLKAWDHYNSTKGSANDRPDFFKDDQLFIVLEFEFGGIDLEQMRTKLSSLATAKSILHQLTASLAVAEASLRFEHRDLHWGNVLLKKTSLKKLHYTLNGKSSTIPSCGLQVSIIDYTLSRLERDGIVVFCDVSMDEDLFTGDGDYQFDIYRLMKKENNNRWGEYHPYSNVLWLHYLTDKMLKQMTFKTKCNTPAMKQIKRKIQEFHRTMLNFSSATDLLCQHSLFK

BRAFA = biological target: T7, BRAFA (Homo sapiens, UniProt P15056); assay: DSF Tm panel; assay type: binding; details: 10 μM compound
T7 construct: purchased in-house DSF kinase panel (SGC-style construct names; the trailing letter is the construct ID)

OSR1A = biological target: T8, OSR1A (Homo sapiens, UniProt O95747); assay: DSF Tm panel; assay type: binding; details: 10 μM compound
T8 construct: purchased in-house DSF kinase panel (SGC-style construct names; the trailing letter is the construct ID)

CASKA = biological target: T9, CASKA (Homo sapiens, UniProt O14936); assay: DSF Tm panel; assay type: binding; details: 10 μM compound
T9 construct: purchased in-house DSF kinase panel (SGC-style construct names; the trailing letter is the construct ID)
T9 sequence (O14936 12-276): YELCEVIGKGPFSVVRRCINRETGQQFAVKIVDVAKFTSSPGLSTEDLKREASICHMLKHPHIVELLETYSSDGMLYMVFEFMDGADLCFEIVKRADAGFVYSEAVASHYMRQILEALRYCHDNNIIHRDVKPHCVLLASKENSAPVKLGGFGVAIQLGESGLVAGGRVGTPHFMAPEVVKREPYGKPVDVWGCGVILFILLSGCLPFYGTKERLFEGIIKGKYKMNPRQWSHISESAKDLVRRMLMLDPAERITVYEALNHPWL

MAPK9A = biological target: T10, MAPK9A (Homo sapiens, UniProt P45984); assay: DSF Tm panel; assay type: binding; details: 10 μM compound
T10 construct: purchased in-house DSF kinase panel (SGC-style construct names; the trailing letter is the construct ID)

GPRK5A = biological target: T11, GPRK5A (Homo sapiens, UniProt P34947); assay: DSF Tm panel; assay type: binding; details: 10 μM compound
T11 construct: purchased in-house DSF kinase panel (SGC-style construct names; the trailing letter is the construct ID)

STK10 = biological target: T12, STK10 (Homo sapiens, UniProt O94804); assay: PhosphoSens in vitro activity assay; assay type: biochemical; details: ATP 160 μM
T12 construct: purchased in-house DSF kinase panel (SGC-style construct names; the trailing letter is the construct ID)

MAPK13A = biological target: T13, MAPK13A (Homo sapiens, UniProt O15264); assay: DSF Tm panel; assay type: binding; details: 10 μM compound
T13 construct: purchased in-house DSF kinase panel (SGC-style construct names; the trailing letter is the construct ID)
T13 sequence (O15264 1-365): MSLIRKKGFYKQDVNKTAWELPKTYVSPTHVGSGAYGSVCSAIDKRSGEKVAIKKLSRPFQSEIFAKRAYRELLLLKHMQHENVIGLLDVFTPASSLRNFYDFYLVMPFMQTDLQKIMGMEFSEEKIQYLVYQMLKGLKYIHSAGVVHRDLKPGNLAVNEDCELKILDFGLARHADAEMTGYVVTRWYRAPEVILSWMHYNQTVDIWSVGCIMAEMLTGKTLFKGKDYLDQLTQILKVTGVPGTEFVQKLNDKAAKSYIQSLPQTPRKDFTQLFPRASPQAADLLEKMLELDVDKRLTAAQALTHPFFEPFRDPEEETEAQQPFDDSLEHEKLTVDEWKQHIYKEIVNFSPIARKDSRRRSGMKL

CDK2A = biological target: T14, CDK2A (Homo sapiens, UniProt P24941); assay: DSF Tm panel; assay type: binding; details: 10 μM compound
T14 construct: purchased in-house DSF kinase panel (SGC-style construct names; the trailing letter is the construct ID)

STK39A = biological target: T15, STK39A (Homo sapiens, UniProt Q9UEW8); assay: DSF Tm panel; assay type: binding; details: 10 μM compound
T15 construct: purchased in-house DSF kinase panel (SGC-style construct names; the trailing letter is the construct ID)

MAPK1A = biological target: T16, MAPK1A (Homo sapiens, UniProt P28482); assay: DSF Tm panel; assay type: binding; details: 10 μM compound
T16 construct: purchased in-house DSF kinase panel (SGC-style construct names; the trailing letter is the construct ID)

MAPK14A = biological target: T17, MAPK14A (Homo sapiens, UniProt Q16539); assay: DSF Tm panel; assay type: binding; details: 10 μM compound
T17 construct: purchased in-house DSF kinase panel (SGC-style construct names; the trailing letter is the construct ID)

MARK4A = biological target: T18, MARK4A (Homo sapiens, UniProt Q96L34); assay: DSF Tm panel; assay type: binding; details: 10 μM compound
T18 construct: purchased in-house DSF kinase panel (SGC-style construct names; the trailing letter is the construct ID)

MAP2K6A = biological target: T19, MAP2K6A (Homo sapiens, UniProt P52564); assay: DSF Tm panel; assay type: binding; details: 10 μM compound
T19 construct: purchased in-house DSF kinase panel (SGC-style construct names; the trailing letter is the construct ID)
T19 sequence (P52564 53-314): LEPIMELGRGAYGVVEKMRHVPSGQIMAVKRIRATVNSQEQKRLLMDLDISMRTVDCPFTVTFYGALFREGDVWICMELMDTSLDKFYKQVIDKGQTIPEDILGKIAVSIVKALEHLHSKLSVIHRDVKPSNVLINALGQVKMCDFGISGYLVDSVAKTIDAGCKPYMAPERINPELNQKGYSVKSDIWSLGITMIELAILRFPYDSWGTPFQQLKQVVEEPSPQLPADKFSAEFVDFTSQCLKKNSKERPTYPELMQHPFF

T8 sequence (O95747 17-291): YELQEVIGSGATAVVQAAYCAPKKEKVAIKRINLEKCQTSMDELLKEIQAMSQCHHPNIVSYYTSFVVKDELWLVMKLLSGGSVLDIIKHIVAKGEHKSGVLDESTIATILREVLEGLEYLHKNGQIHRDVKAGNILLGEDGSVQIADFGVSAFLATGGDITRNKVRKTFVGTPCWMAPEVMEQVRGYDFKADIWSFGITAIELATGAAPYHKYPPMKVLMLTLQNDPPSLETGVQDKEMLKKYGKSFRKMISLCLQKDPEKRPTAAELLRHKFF
T3 sequence (P53355 1-285): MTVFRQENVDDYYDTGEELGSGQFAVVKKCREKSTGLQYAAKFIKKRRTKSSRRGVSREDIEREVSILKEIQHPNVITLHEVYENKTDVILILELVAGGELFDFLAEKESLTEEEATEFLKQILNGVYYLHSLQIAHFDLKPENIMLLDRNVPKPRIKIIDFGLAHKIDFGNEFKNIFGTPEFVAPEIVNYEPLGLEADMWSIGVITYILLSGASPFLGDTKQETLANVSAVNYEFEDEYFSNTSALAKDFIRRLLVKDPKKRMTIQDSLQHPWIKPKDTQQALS
T10 sequence (P45984 7-364): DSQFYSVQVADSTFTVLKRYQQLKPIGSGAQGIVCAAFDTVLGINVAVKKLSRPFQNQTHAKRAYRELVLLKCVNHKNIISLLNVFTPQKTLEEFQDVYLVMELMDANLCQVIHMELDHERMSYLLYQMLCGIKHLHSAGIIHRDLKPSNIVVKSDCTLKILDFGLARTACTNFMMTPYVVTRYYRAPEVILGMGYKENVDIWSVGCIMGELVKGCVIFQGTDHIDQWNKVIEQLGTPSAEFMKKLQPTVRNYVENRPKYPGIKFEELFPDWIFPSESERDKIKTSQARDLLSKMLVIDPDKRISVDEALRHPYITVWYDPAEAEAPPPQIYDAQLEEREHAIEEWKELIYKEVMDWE
T2 sequence (P11309 whole entry): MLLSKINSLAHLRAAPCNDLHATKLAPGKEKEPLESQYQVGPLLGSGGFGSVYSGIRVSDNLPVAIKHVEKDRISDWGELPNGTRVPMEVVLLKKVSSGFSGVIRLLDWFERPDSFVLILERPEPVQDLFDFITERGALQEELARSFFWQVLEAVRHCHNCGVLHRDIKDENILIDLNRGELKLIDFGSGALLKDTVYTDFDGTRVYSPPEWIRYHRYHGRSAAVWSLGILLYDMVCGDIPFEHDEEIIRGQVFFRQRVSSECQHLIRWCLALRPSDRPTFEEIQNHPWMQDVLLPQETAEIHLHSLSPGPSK
T1 sequence (P21802 458-770): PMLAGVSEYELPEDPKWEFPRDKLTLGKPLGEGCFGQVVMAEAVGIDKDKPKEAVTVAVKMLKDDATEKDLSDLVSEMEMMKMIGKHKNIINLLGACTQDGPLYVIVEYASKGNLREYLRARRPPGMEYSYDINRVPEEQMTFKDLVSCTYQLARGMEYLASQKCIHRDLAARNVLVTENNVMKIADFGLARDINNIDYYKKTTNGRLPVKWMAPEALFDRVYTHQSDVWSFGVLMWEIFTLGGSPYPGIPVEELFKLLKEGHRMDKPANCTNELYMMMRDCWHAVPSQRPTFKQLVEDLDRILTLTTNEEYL
T17 sequence (Q16539 whole entry): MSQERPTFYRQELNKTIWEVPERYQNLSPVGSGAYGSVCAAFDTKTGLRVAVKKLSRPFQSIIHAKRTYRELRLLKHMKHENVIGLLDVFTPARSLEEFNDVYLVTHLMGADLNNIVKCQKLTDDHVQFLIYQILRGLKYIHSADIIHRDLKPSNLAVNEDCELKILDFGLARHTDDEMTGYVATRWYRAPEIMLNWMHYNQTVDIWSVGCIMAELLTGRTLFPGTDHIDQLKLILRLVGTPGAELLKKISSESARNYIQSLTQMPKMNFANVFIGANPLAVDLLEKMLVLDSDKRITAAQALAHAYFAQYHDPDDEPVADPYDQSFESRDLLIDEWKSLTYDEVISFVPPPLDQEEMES
T16 sequence (P28482 whole entry): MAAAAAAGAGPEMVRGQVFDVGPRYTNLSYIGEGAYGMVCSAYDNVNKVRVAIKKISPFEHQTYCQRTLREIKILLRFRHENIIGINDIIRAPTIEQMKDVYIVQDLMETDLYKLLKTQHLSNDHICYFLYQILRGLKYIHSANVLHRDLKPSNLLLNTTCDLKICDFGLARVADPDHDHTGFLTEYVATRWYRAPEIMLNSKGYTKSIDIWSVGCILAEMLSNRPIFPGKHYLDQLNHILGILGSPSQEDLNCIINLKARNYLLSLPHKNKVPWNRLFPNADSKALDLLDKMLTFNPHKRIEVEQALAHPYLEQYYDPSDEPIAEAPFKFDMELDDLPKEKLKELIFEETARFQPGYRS
T7 sequence (P15056 448-723): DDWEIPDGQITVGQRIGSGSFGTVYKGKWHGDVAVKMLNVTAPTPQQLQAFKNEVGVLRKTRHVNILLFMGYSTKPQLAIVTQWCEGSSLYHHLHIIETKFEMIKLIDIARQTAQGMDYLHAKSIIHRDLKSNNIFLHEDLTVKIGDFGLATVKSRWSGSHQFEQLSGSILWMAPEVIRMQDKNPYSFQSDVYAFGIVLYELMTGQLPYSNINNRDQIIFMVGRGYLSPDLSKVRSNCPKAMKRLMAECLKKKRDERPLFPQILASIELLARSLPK
T18 sequence (Q96L34 59-310): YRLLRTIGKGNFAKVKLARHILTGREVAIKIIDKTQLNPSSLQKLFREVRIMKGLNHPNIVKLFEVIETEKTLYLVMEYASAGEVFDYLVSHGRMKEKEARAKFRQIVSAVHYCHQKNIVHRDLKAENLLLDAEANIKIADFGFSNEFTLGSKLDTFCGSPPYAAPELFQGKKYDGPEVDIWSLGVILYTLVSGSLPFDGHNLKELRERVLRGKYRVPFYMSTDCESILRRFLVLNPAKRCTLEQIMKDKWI
T11 sequence (P34947 186-514): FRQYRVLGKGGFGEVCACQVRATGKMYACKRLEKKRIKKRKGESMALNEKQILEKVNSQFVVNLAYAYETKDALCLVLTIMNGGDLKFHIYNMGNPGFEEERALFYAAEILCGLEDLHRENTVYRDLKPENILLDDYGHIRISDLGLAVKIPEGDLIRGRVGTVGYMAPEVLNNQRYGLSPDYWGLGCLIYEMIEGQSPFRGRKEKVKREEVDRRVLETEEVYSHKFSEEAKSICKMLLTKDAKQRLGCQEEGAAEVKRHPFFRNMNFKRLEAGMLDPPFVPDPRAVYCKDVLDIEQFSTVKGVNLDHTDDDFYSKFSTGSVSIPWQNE
T5 sequence (P07332 whole entry): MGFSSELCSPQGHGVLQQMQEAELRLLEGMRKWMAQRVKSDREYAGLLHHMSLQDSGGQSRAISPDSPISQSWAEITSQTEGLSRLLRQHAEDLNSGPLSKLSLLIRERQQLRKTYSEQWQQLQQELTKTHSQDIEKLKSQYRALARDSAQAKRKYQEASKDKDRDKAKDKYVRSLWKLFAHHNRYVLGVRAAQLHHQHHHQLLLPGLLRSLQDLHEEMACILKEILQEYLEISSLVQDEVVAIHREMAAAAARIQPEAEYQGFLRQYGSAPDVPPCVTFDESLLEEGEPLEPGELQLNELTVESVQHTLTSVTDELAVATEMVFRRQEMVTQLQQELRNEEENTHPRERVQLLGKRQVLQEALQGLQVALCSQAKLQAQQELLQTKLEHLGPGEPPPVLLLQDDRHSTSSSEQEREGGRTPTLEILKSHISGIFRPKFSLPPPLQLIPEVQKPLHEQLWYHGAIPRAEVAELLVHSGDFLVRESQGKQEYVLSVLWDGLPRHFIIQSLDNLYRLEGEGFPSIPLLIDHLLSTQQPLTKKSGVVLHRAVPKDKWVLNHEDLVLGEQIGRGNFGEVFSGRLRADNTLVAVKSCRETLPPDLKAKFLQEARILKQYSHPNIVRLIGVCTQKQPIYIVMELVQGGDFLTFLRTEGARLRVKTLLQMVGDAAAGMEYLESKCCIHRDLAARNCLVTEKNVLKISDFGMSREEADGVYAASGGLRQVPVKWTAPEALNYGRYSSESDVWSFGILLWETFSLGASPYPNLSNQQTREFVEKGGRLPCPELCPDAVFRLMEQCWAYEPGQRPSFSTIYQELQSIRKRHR
T12 sequence (O94804 18-317 limits assumed): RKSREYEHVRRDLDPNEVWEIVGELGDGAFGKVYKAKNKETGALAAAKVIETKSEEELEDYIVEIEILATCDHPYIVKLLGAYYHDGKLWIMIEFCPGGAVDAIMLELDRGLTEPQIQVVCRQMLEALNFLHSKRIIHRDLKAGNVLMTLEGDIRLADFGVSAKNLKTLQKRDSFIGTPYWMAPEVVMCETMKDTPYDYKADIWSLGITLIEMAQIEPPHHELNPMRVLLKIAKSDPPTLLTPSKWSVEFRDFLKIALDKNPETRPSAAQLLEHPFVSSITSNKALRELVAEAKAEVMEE

| SMILES | ΔTm at 10 µM (FGFR2A) [°C] | ΔTm at 10 µM (PIM1 (PIM1A)) [°C] | ΔTm at 10 µM (DAPK1 (DAPK1A)) [°C] | ΔTm at 10 µM (DCAMKL1A) [°C] | ΔTm at 10 µM (FESA) [°C] | ΔTm at 10 µM (SLK) [°C] | ΔTm at 10 µM (GSG2A) [°C] | ΔTm at 10 µM (BRAFA) [°C] | ΔTm at 10 µM (OSR1A) [°C] | ΔTm at 10 µM (CASKA) [°C] | ΔTm at 10 µM (MAPK9A) [°C] | ΔTm at 10 µM (GPRK5A) [°C] | IC50 (STK10) [µM] | ΔTm at 10 µM (MAPK13A) [°C] | ΔTm at 10 µM (CDK2A) [°C] | ΔTm at 10 µM (STK39A) [°C] | ΔTm at 10 µM (MAPK1A) [°C] | ΔTm at 10 µM (MAPK14A) [°C] | ΔTm at 10 µM (MARK4A) [°C] | ΔTm at 10 µM (MAP2K6A) [°C] |
| --- | --- | --- | --- | --- | --- | --- | --- | --- | --- | --- | --- | --- | --- | --- | --- | --- | --- | --- | --- | --- |
| O=C(NCc1ccccc1)Nc1ccc2cc1OCCOCCNc1ccn3ncc-2c3n1 [compound 16] | 4.8 | 1.2 | 1.3 | 0.8 | 3 | 4.4 | 0.5 | 0.8 | 0.5 | 2.2 | 1.7 | 1.2 | 0.88 ± 0.11 | 0.1 | 4.1 | 3 | -0.1 | -0.6 | 1.7 | 1.4 |
| O=C(NCc1ccccc1Cl)Nc1ccc2cc1OCCOCCNc1ccn3ncc-2c3n1 [compound 17] | 1.7 | 1.5 | 0.1 | 0.7 | 0.2 | 4.8 | -0.3 | 0.8 | 0.7 | 2.8 | 0.4 | 1.3 | 1.53 ± 0.26 | 0.5 | 2.9 | 2.4 | 0.3 | 0 | 2.2 | 0.9 |
| O=C(NCc1cccc(Cl)c1)Nc1ccc2cc1OCCOCCNc1ccn3ncc-2c3n1 [compound 18] | 3.3 | 3.2 | 0.3 | -0.1 | 0.1 | 4.7 | 0 | 0.6 | 1.7 | 2.1 | 0.5 | 1.1 | 2.57 ± 0.11 | 0.7 | 4.3 | 4 | 0.7 | 0.3 | 1.4 | 1.2 |
| O=C(NCc1ccc(Cl)cc1)Nc1ccc2cc1OCCOCCNc1ccn3ncc-2c3n1 [compound 19] | 3.7 | 1.8 | -0.1 | 0 | 0.4 | 5.2 | -0.2 | 0.8 | 0.7 | 2.2 | 0.3 | 1.5 | 0.95 ± 0.12 | 0.6 | 5.6 | 2.6 | 0.1 | 0.1 | 2 | 1.1 |
| COc1ccc(CNC(=O)Nc2ccc3cc2OCCOCCNc2ccn4ncc-3c4n2)cc1 [compound 31] | 3.1 | 2 | 0.3 | 1.4 | 0.8 |  | 1.2 | -0.5 | 1.3 | 1.8 | -1.3 | 0.9 | 2.74 ± 0.47 | -1.3 | 3.3 | 1.2 | 0.9 | 1.5 | 2 | 1.2 |
| CN1CCN(C(=O)Nc2ccc3cc2OCCOCCNc2ccn4ncc-3c4n2)CC1 [compound 35] | 1.5 | 2.4 | 0.7 | 0.6 | -0.2 | 3.3 | 1.3 | 1.2 | 0 | 0 | 0.4 | 0.8 |  | 0.4 | 1.4 | 1.6 | 0.3 | -0.3 | 0.8 | 0.4 |
